Values after ≈ are worked out from the molar mass of the structure shown.
What was measured:
Experiment in all cases: ≥ marks a high value that may be exact or a test limit, other limits are often not marked, values filed in µg/mL are converted to µM
[1] = system: Staphylococcus aureus ATCC 29213
[2] = system: Staphylococcus aureus
[3] = system: Candida albicans ATCC 90029
[4] = system: Pseudomonas aeruginosa
[5] = system: Candida albicans
[6] = system: Escherichia coli
[7] = system: Escherichia coli ATCC 25922

Structure (SMILES)	MIC [1]	MIC [2]	MIC [3]	MIC [4]	MIC [5]	MIC [6]	MIC [7]
CC(C)C[C@H](NC(=O)[C@H](CCCN=C(N)N)NC(=O)[C@H](Cc1cnc[nH]1)NC(=O)[C@H](CCCN=C(N)N)NC(=O)[C@H](CC(C)C)NC(=O)[C@H](CC(C)C)NC(=O)[C@@H](N)CCCCN)C(=O)N[C@@H](CC(C)C)C(=O)N[C@H](C(=O)N[C@H](C(=O)N[C@@H](CC(C)C)C(=O)N[C@@H](C)C(=O)O)[C@@H](C)O)C(C)C [KLLRHRLLVTLA]	4.36 µM (≈ 6.25 µg/mL)	4.36 µM (≈ 6.25 µg/mL)	≥ 69.8 µM	8.72 µM (≈ 12.5 µg/mL)	> 69.8 µM	4.36 µM (≈ 6.25 µg/mL)	2.18 µM (≈ 3.12 µg/mL)
CC(C)C[C@H](NC(=O)[C@H](Cc1cnc[nH]1)NC(=O)[C@H](CO)NC(=O)[C@H](C)NC(=O)[C@H](CC(C)C)NC(=O)[C@@H](NC(=O)[C@@H](NC(=O)[C@H](CC(C)C)NC(=O)[C@H](CC(C)C)NC(=O)[C@H](CO)NC(=O)[C@H](Cc1cnc[nH]1)NC(=O)[C@H](CO)NC(=O)[C@H](CC(C)C)NC(=O)[C@H](CC(C)C)NC(=O)[C@H](CCCCN)NC(=O)[C@H](Cc1ccccc1)NC(=O)[C@H](CCCN=C(N)N)NC(=O)[C@@H](N)C(C)C)C(C)C)[C@@H](C)O)C(=O)O [VRFKLLSHSLLVTLASHL]	6.14 µM (≈ 12.5 µg/mL)	3.07 µM (≈ 6.25 µg/mL)	12.3 µM (≈ 25 µg/mL)	3.07 µM (≈ 6.25 µg/mL)	12.3 µM (≈ 25 µg/mL)	6.14 µM (≈ 12.5 µg/mL)	3.07 µM (≈ 6.25 µg/mL)

Reference: DBAASP
